SMILES strings stand for the structures.

This assay has as its system RIG-I. Description: IRF/NF-kB reporter cells testing the role of RIG-I. The class given is cell-based. The settings on record: 20 hours. The protocol: FIG. 28 depicts cells stably expressing both or either one of the reporters to measure IRF and NF-kB activity were treated with a range of concentrations of compound 4 or DMSO control for 20 hours. IRF activity was assessed using QUANTI-luc to measure levels of Lucia and NF-kB activity was determined by measure SEAP levels at 620-655 nm. % induction was calculated from fold change in luminescence/absorbance compared to DMSO treated sample. EC50 values are generated by curve fit in Xlfit.

As to `CCCCCCCCCCOc1ccc(C(=O)Oc2ccc(CSP3(=O)OC[C@H]4O[C@@H](n5cnc6c(N)ncnc65)[C@H](F)[C@@H]4OP(=O)(O)OC[C@H]4O[C@@H](n5ccc(=O)[nH]c5=O)[C@H](O3)[C@@H]4F)cc2)cc1` (stereo partly shown) [Compound 4], the “involvement of RIG-I in the mechanism of action” value is recorded as “not implicated”.

These data come from patent US11638716B2, “Compounds, compositions, and methods for the treatment of disease” (F-star Therapeutics, Inc., priority 2017, dated 2023).
